How the values were obtained:
Assay type in all cases: in vivo, mouse
TRAMP prostate tumors = test: TRAMP spontaneous prostate cancer model, weekly low dose oxaliplatin; conditions: for prostate tumor regression 30 days after lymphocyte transfer: TRAMP
Description: All TRAMP mice, their derivatives and s.c. Myc-Cap transplantation were in the FVB genetic background and their basic immune parameters are shown in FIG. 15a-m. For s.c. TRAMP-C2 tumors, C57BL/6 mice were used. In both s.c. tumors, 2-3×10^6 cells/mouse were transplanted. More detailed information is as follows.
C57BL/6 and FVB control mice were purchased from Charles River Laboratories and CD45.1 mice^1 were purchased from Jackson Laboratory, and all were bred at the University of California San Diego (UCSD) animal facility. C57BL/6-Tg(TRAMP)8247Ng/J (TRAMP mice)^2 were backcrossed to the FVB strain for more than 10 generations. The median survival of TRAMP-FVB mice was 23 weeks compared to 52 weeks for TRAMP-C57BL/6 mice. TRAMP mice were crossed with B cell-deficient (Jh^−/−) mice^3, CTL-deficient (Cd8a^−/−) mice^4 or Rag1^−/− mice, which lack both B and T cells^5, all in the FVB-background. OT-I mice were obtained from Taconic^6. Tgfbr2^F/F (FVB-background) mice were obtained from Dr. Hal Moses at Vanderbilt University^7. Tcrb^−/−, Cd19-Cre, Il10^−/− and CD45.1 mice were purchased from the Jackson Laboratory. IgA gene-deficient (Iga^−/−) mice^8 were obtained from Baylor College of Medicine. Pdl1/2^−/− mice were obtained from Genentech (San Francisco, Calif.). Cd19-Cre and Iga^−/− mice were backcrossed to the FVB strain for more than 10 generations. All mice were maintained in filter-topped cages on autoclaved food and water at the UCSD animal facility and all experiments were performed in accordance with UCSD and NIH guidelines and regulations.
Mouse treatment studies were “matched design control trials.” Accordingly, mice were randomly chosen and paired based on sex (male), age (FIG. 6a) and tumor size. For transplanted tumor models, tumor size was defined by the median tumor volume (e.g. 400 mm^3, for late treatments, FIG. 6a,f). For TRAMP transgenic tumor models, treatment decisions were made based on age and mice were randomly chosen including a control littermate. An identification code was assigned to each tumor-bearing mouse both in the transplanted and transgenic models, and the investigators were blinded to treatment allocation at the time of tumor volume measurement, autopsy and analysis.
Anti-PD-L1 antibody was i.v. injected at 10 mg/kg once, followed by 5 mg/kg bi-weekly. Mice were treated for three weeks for a total of 7 doses/animal.

[1] = IgA production and immune parameters in tumor-free mice; conditions: LD, tumor-free WT or Tgfbr2ΔB mice
Method: All results are means±s.e.m.
For lymphocytes isolated from spleen and lymph nodes, standard protocols using filters have been used. Lymphocytes were isolated from human blood using Ficoll-Paque PLUS (GE Healthcare Life Science) according to manufacturer's recommendations. […] Moreover, Il10 and β-actin mRNA expression were analyzed on single cell level by flow cytometry in combination with CD45, IgA and IL-10 protein staining, using FlowRNA II Assay kit (Affymetrix eBioscience) according to manufacturer's protocols^9. Cells were analyzed on a Beckman Coulter Cyan ADP flow cytometer. Data were analyzed using FlowJo software (Treestar). […]
Anti-SV40 Tag immunoglobulin ELISA was performed as previously described^33. […] After 24 hrs, the supernatants were analysed for IgA content. […]

serum IgA, IgG = test: Serum IgA and IgG ELISA in tumor-bearing mice; conditions: TRAMP and MC-tumor models, oxaliplatin alone
Method: Anti-SV40 Tag immunoglobulin ELISA was performed as previously described^33. IgA and IgG ELISA kits were purchased from eBioscience, and used according to manufacturer's protocols. Tumoral single cell suspension has been prepared as described above in the flow cytometry section, and was washed 2-3 times with 1×PBS/2mMEDTA/2% FCS, to remove soluble IgA. Thereafter, about 3×10^6 cells/24-well were plated in either 10% FCS/DMEM or Hybridoma medium (Life Technology). After 24 hrs, the supernatants were analysed for IgA content. Media without cells were used as controls.

[2] = tested on: tumor-infiltrating B cells and CD8+ T cells; test: Flow cytometry / Q-RT-PCR of tumor-infiltrating lymphocytes in TRAMP and MC tumors
Method: For lymphocytes isolated from spleen and lymph nodes, standard protocols using filters have been used. Lymphocytes were isolated from human blood using Ficoll-Paque PLUS (GE Healthcare Life Science) according to manufacturer's recommendations. For lymphocyte isolation from tumors (mouse and human), tumors were cut into small pieces and incubated in dissociation solution (RPMI medium supplemented with 5% FBS, collagenase type I (200 U/ml), collagenase type IV (200 U/ml), and DNase I (100 μg/ml) for 30 min at 37° C. After incubation, cell suspensions were passed through a 50 μm cell strainer and washed twice. For large tumors (≥0.7 g), hematopoietic cells were pre-enriched using density gradient centrifugation (Percoll or Ficoll), and red blood cells were lysed (RBC Lysis buffer, multi-species; eBioscience). For blocking of Fc-mediated interactions, mouse cells were pre-incubated with 0.5-1 μg of purified anti-mouse CD16/CD32 (93) per 100 μl and human cells were incubated with FcR blocking reagent (Miltenyi Biotec). Isolated cells were stained with labeled antibodies in PBS with 2% FCS and 2 mM EDTA or cell staining buffer (Biolegend). Dead cells were excluded based on staining with Live/Dead fixable dye (eBioscience). For intracellular cytokine staining, cells were restimulated (Myc-Cap cell lysate, PMA/ionomycin or PMA/ionomycin/LPS, as indicated) in the presence of a protein transport inhibitor cocktail containing Brefeldin A and Monensin (eBioscience), as indicated. For CD107, a staining antibody was added to the culture during the stimulation. After 5 hrs, cells were fixed and permeabilized with BD™ Cytofix/Cytoperm reagent for cytokine staining. BD™ transcription factor buffer was used for Foxp3 and T-bet staining and BD™ Phosflow was used for p-SMAD2/3 and p-STAT staining (BD Biosciences) according to manufacturer's recommendations. After fixation/permeabilization, cells were stained with labeled antibodies of interest. Moreover, Il10 and β-actin mRNA expression were analyzed on single cell level by flow cytometry in combination with CD45, IgA and IL-10 protein staining, using FlowRNA II Assay kit (Affymetrix eBioscience) according to manufacturer's protocols^9. Cells were analyzed on a Beckman Coulter Cyan ADP flow cytometer. Data were analyzed using FlowJo software (Treestar). Immune cell analysis of tumor-free mice of different genetic backgrounds (C57BL/6 and FVB) and different genetic ablations are shown in FIG. 15a-m.
Total RNA was extracted using an RNeasy Plus kit (Qiagen). RNA was reverse transcribed using an IScript kit (Biorad). Q-RT-PCR was performed using Ssofast EvaGreen supermix (Biorad) on a Biorad CFX96 machine. Primer sequences are listed below and generally were obtained from the NIH qPrimerDepot (http://mouseprimerdepot.nci.nih.gov). The relative expression levels of target genes were measured in triplicates and normalized against the level of RPL32 expression. Fold-difference (as relative mRNA expression) was calculated by the comparative CT method (2^(Ct(RPI,32-gene or interest))).

## O=C1[O][Pt]2([NH][C@@H]3CCCC[C@H]3[NH]2)[O]C1=O [oxaliplatin]
TRAMP prostate tumors; B cell-deficient TRAMP, Jh−/− mice
  PC growth, late treatment: remained oxaliplatin sensitive
TRAMP prostate tumors; LD oxaliplatin weekly, dependent on CTL
  TRAMP mouse survival: enhanced TRAMP mouse survival
TRAMP prostate tumors; Rag1−/− mice receiving T and B cells
  prostate tumor regression 30 days after lymphocyte transfer: led to tumor regression
TRAMP prostate tumors; Rag1−/− mice receiving only T cells
  prostate tumor regression 30 days after lymphocyte transfer: complete tumor regression
TRAMP prostate tumors; WT TRAMP mice, 6 mg/kg weekly, late treatment
  response of ≥0.7 g tumors to late chemotherapy: largely resistant
TRAMP prostate tumors; early treatment, regardless of B cell status
  response of early (≤0.2 g) TRAMP tumors: responded
[1]
  IgA production and other immune parameters: no effect
Serum IgA, IgG
  serum IgA: increased serum IgA
  serum IgG: little effect on serum IgG
[2]; MC tumors
  IL-21 expression in tumors: increased IL-21 expression
  Il10 mRNA expression in tumors: increased Il10 mRNA expression
  STAT3 phosphorylation in tumoral B cells: enhanced STAT3 phosphorylation
  proportion of tumoral B cells undergoing TGFβ signaling (p-SMAD2/3, Tgfb1 mRNA): increased the proportion of tumoral B cells undergoing TGFβ signaling
[2]; MC tumors in Jh−/− mice, oxaliplatin versus cisplatin
  abundance of tumor infiltrating CD8+ and CD4+ cells: increased the abundance
[2]; MC tumors, WT and Jh−/− mice, no differences between them
  induction of Nos2, Arg1, IL-12p35 and IL-12p40: induced other immunoregulatory molecules
[2]; TRAMP and MC tumors
  induction of Fas-L and PD-L1 on tumoral B cells: induced Fas ligand (Fas-L) and PD ligand 1 (PD-L1)
[2]; TRAMP and TRAMP, Jh−/− mice
  CD8+ cell recruitment into tumors: stimulated CD8^+ cell recruitment
[2]; TRAMP tumors
  abundance of LTα/β-producing B cells: barely increased
  oxaliplatin-induced IgA+ cells expressing both PD-L1 and IL-10: about 40%
[2]; WT mice bearing MC tumors
  amount of splenic IgA+ cells: modestly increased
[2]; after 3-4 cycles of oxaliplatin treatment
  tumoral B cells that were CD19+B220lowCD138+ plasma cells: at least 40%
[2]; after 3-4 cycles, depending on the tumor model used
  plasma cells that expressed IgA: 40-80%
[2]; after additional cycles
  abundance of IgA+ B cells among B220low cells: ~80%
[2]; after oxaliplatin
  IgA+ B cells expressing both Fas-L and PD-L1: about 50%
[2]; after oxaliplatin cycles
  number of tumoral B220+CD19+ B cells: greatly increased
[2]; after oxaliplatin treatment
  IgA+CD19+ plasmocytes containing both IL-10 mRNA and protein: 50%
[2]; after the first oxaliplatin cycle
  time at which IgA+ B cells became detectable: 48 h

— patent publication US10722523B2, “Chemoimmunotherapy for epithelial cancer” (THE REGENTS OF THE UNIVERSITY OF CALIFORNIA, priority 2015, dated 2020)
